Measurements as given in US5866537A, “Pharmaceutical and/or dietetic compositions with antioxidant activity containing carnosine or derivatives and branched amino acids” (Farmila-Farmaceutici Milano S.R.L., priority 1995, dated 1999).
Counter-ions that a name gives are not always drawn.

Legend:
Format in all cases: in vivo
[1] = system: lipoperoxides content in the heart; test: lipoperoxides content in heart (malonyldialdehyde, Yagi procedure) of rats on hyperlipidemizing and hypercholesterolemizing diet; conditions: male rats, solution as ad libitum drink; for percent variation compared with the control: heart lipoperoxides, 20 days diet; for malonyldialdehyde nmoles/g. of fresh tissue: heart, 20 days hyperlipidemizing and hypercholesterolemizing diet
Method: (§1) In order to study the pharmacological and/or dietetic characteristics of the compositions according to the present invention, tests were carried out to evaluate the following effects in rats subjected to an ipovitaminic, hyperlipidemizing and hypercholesterolemizing diet (which is known to be capable of promoting the tissue and plasma peroxidation processes):
4°) effect of the compositions on the lipoperoxides content in the heart (measured as malonyldialdehyde nmoles/g).
(§2) 36 Male rats weighing 180-200 g were used.
(§3) The animals were subjected for 20 days to a standard hyperlipidemizing and hypercolesterolemizing diet consisting of: 20% caseine, a 3.5% mixture of oligoelements and mineral salts, a 0.1% mixture of vitamins, 0.2% choline bitartrate, 2% cellulose powder, 0.5% chloesterol, 0.25. sodium cholate, 62.44% saccharose and 10.9% lard. During that time, the animals were divided into in 6 groups which received as an "ad libitum" available drink:
(§4) 1° group: control (only water)
(§5) 2° group: Test A (a 0.75% CARNOSINE aqueous solution)
(§6) 3° group: Test B (a 0.25% CARNITINE aqueous solution)
(§7) At end of the test the animals were killed to take both blood samples and the various organs (liver, brain, and heart) on which the lipoperoxides content was evaluated dosing malonyldialdehyde, according to the procedure by Yagi (YAGI K, (1982), in "Lipid peroxides in biology and medicine", Academic Press, New York, pp. 324-40).

[2] = system: lipoperoxides content in the liver; test: lipoperoxides content in liver (malonyldialdehyde, Yagi procedure) of rats on hyperlipidemizing and hypercholesterolemizing diet; conditions: male rats, solution as ad libitum drink; for percent variation compared with the control: liver lipoperoxides, 20 days diet; for malonyldialdehyde nmoles/g. of fresh tissue: liver, 20 days hyperlipidemizing and hypercholesterolemizing diet
Method: as §1
2°) effect of the compositions on the lipoperoxides hepatic content (measured as malonyldialdehyde nmoles/g)
as §2, §3, §4, §5, §6, §7

[3] = system: lipoperoxides content in the plasma; test: lipoperoxides content in plasma (malonyldialdehyde, Yagi procedure) of rats on hyperlipidemizing and hypercholesterolemizing diet; conditions: male rats, solution as ad libitum drink; for percent variation compared with the control: plasma lipoperoxides, 20 days diet; for malonyldialdehyde: plasma, 20 days hyperlipidemizing and hypercholesterolemizing diet
Method: as §1
1°) effect of the compositions on the lipoperoxides […] content (measured as malonildialdehye nmoles/ml)
as §2, §3, §4, §5, §6, §7

[4] = system: lipoperoxides content in brain; test: lipoperoxides content in brain (malonyldialdehyde, Yagi procedure) of rats on hyperlipidemizing and hypercholesterolemizing diet; conditions: male rats, solution as ad libitum drink; for percent variation compared with the control: brain lipoperoxides, 20 days diet; for malonyldialdehyde nmoles/g. of fresh tissue: brain, 20 days hyperlipidemizing and hypercholesterolemizing diet
Method: 3°) effect of the compositions on the lipoperoxides cerebral content (measured as malonyldialdehyde nmoles/g)
as §2, §3, §4, §5, §6, §7

## NCCC(=O)N[C@@H](Cc1c[nH]cn1)C(=O)O [Test A, β-alanyl-L-histidine]
[1]
  percent variation compared with the control: -20.0%
  malonyldialdehyde nmoles/g. of fresh tissue: 36 ± 7 nmoles/g. of fresh tissue
[1]; listed as carnosine
  percent variation compared with the control: -20%
[2]
  percent variation compared with the control: -9.5%
  malonyldialdehyde nmoles/g. of fresh tissue: 39 ± 8 nmoles/g. of fresh tissue
[3]
  percent variation compared with the control: -14.2%
  malonyldialdehyde: 3.6 ± 0.6 nmol/mL
[4]
  percent variation compared with the control: -12.7%
  malonyldialdehyde nmoles/g. of fresh tissue: 89 ± 7 nmoles/g. of fresh tissue

## C[N+](C)(C)CC(O)CC(=O)[O-] (centres unmarked) [Test B, 3-carboxy-2-hydroxy-N,N,N-trimethyl-1-propanamine inner salt]
[1]
  percent variation compared with the control: no changes compared with the controls
  malonyldialdehyde nmoles/g. of fresh tissue: 45 ± 4 nmoles/g. of fresh tissue
[2]
  percent variation compared with the control: +2.3%
  malonyldialdehyde nmoles/g. of fresh tissue: 43 ± 6 nmoles/g. of fresh tissue
[3]
  percent variation compared with the control: no effects
  malonyldialdehyde: 4.2 ± 0.8 nmol/mL
[4]
  percent variation compared with the control: +3.9%
  malonyldialdehyde nmoles/g. of fresh tissue: 106 ± 5 nmoles/g. of fresh tissue
